According to patent publication US10940139B2, “Compounds that interact with the Ras superfamily for the treatment of cancers, inflammatory diseases, rasopathies, and fibrotic disease” (Shy Therapeutics LLC, priority 2017, dated 2021):

What follows are molecules tested against KRas G12D/Q61H double mutant (Homo sapiens (Human), UniProt P01116, G12D/Q61H) (assay: Ras GTP binding domain inhibition assay (labeled GTP)). Conditions: 20 μM compound; KRas G12D/Q61H double mutant; read-out: % Inhibition at 20 μM of K-Ras mutant and wild-type protein, KRas G12D Q61H.
Description: Buffer-I: • 50 mM Tris, pH 7.5 • 150 mM NaCl (optional) • 1 mM MgCl2 • 1 mM DTT. • KRas G12D mutant protein was expressed as a His-tagged protein. Purified His-KRas G12D protein was diluted in buffer-I to a final concentration of 3-10 μg/ml. • 200 μl of the diluted His-KRas G12D protein was added to a nickel coated 96 well plate and incubated overnight at 4° C. • The next day, wells were washed 3× in 200 μl of Buffer-I. • Then 200 μl of Buffer-I were added to each well in the presence of 1% DMSO. • Tested compounds were added to the protein-coated wells at a concentration of 20 μM, and incubated for 3 hours at room temperature. While performing IC50 measurements a serial dilution of all tested concentrations was prepared.
Then 22 μl of Cy3-GTP or Cy5-GTP was added to each well. The labeled GTP was incubated for 45 min. at room temperature. • Following GTP incubation, wells were washed 3× in Buffer-I, and 200 μl of Buffer-I were added to each well. • Following washes, the amount of bound labeled-GTP was measured with an Eppendorf AF2200 plate reader.
By substituting KRas G12D mutant protein with KRas G12C mutant, KRas wild type, KRas Q61H mutant, KRas G12D/Q61H double mutant or KRas G12C/Q61H double mutant under the assay conditions described above, KRas G12C mutant KRas wild type, KRas Q61H mutant, KRas G12D/Q61H double mutant and KRas G12C/Q61H double mutant inhibition, respectively, were each determined.

KRas G12D/Q61H double mutant, sequence (P01116-2 other isoform, or with tags, fused parts or gaps G12D/Q61H): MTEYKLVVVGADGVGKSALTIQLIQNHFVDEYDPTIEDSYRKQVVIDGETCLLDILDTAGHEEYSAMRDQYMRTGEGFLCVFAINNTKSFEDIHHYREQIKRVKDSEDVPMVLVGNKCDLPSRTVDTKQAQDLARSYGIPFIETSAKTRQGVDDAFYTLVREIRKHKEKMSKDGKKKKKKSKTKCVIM

Row | inhibition at 20 µM [%] | Structure (SMILES)
1 | 1 to 25 | Cc1n[nH]c(C2CN(C(=O)c3cnc(C)s3)CCO2)n1 (stereo not drawn)
2 | 1 to 25 | NC(=O)CCN1CCOC(c2nc(-c3ccccc3)cs2)C1 (stereo not drawn)
3 | 1 to 25 | NC(=O)c1cc(-c2csc(N3CCCCC3)n2)ccc1O
4 | 1 to 25 | CC(CC(N)=O)Nc1cc(C(F)(F)F)nc(-c2ccccn2)n1 (stereo not drawn)
5 | 1 to 25 | Cc1nc(CN(C)CC23CC4CC(CC(C4)C2)C3)oc1C
6 | 1 to 25 | CC(NC(=O)C1CSC(c2ccccc2)=N1)c1ccccn1 (stereo not drawn)
7 | 1 to 25 | CCN(C(=O)c1cnn(-c2ccccc2)n1)c1ccccc1
8 | 1 to 25 | Cc1nc2ccccc2n1CCNC(=O)c1cc(S(=O)(=O)N(C)C)ccc1N1CCOCC1
9 | 25 to 50 | O=[N+]([O-])c1ccc(O)c2ncccc12
10 | 25 to 50 | COC(=O)CCc1sc(NC2CCCCC2)nc1-c1ccc(OC)cc1
11 | 25 to 50 | COc1ccc(-c2oc3ncn(CCCn4ccnc4)c(=N)c3c2-c2ccc(OC)cc2)cc1
12 | 1 to 25 | Cc1ccc(OS(=O)(=O)NCCC(c2ccccc2)c2ccccc2)cc1
13 | 25 to 50 | CC(=O)c1c(F)cccc1N1CCN(c2cccc(C(F)(F)F)c2)CC1
14 | 25 to 50 | CN(Cc1ccccc1C#N)Cc1ccccc1N1CCCCC1
15 | 1 to 25 | O=c1c(Cl)cc(C(F)(F)F)cn1Cc1csc(COc2ccc(Cl)cc2)n1
16 | 25 to 50 | CCOC(=O)c1ccc2c(c1)nc(C1CCN(S(=O)(=O)c3cccs3)CC1)n2CC
17 | 25 to 50 | Cc1c(C(=O)N(CCc2ccccc2)Cc2ccccc2)cccc1[N+](=O)[O-]
18 | 25 to 50 | C=CCOc1ccc(C(=O)c2ccccc2)c(OCC(=O)NC2(C#N)CCCC2)c1
19 | 25 to 50 | COC(=O)c1ccc(CN2CCN(c3cccc(C(F)(F)F)c3)CC2)cc1
20 | 25 to 50 | CCCCc1ccc([N+]2=C3SCCCN3CC2(O)c2ccc(C)cc2)cc1 (stereo not drawn)

Row | inhibition at 20 µM [%] | Structure (SMILES)
21 | 25 to 50 | CCOc1ccc(S(=O)(=O)N(CC(=O)N2CCCc3ccccc32)Cc2ccco2)cc1
22 | 25 to 50 | COC(=O)c1ccc(COC(=O)c2oc3ccccc3c2COC(C)C)o1
23 | 1 to 25 | Cc1cc(C(=O)COC(=O)c2ccccc2[S+](C)[O-])c(C)n1CCC1=CCCCC1 (stereo not drawn)
24 | 25 to 50 | Cc1ccc(CN(Cc2ccco2)C(=O)C(c2ccccc2)c2ccccc2)o1
25 | 25 to 50 | CCOC(=O)c1c(-c2ccc(OC)cc2)oc2ccc(OCC=C(C)C)cc12
26 | 25 to 50 | COc1ccc(CCN/C(=N/C(=O)Nc2ccccc2)Nc2nc(C)cc(C)n2)cc1OC
27 | 25 to 50 | CCCc1cc(=O)oc2cc(OCc3cc(C(=O)OC)c(C)o3)ccc12
28 | 25 to 50 | COc1ccc(CN(C)C(=O)c2cc(Br)c(Br)s2)c(OC)c1
29 | 25 to 50 | CC(C)(CNc1ccc(S(=O)(=O)N(Cc2ccccc2)Cc2ccccc2)cn1)N1CCOCC1
30 | 25 to 50 | CCOc1ccc(Nc2ccc([N+](=O)[O-])cc2S(=O)(=O)N(CC)CC)cc1
31 | 25 to 50 | C=CCN(Cc1ccc(Cl)s1)C(=O)COC(=O)c1cc(OC)ccc1O
32 | 25 to 50 | Cc1cc2oc(=O)cc(CN(C)Cc3c(C)nn(Cc4ccccc4Cl)c3C)c2cc1C
33 | 25 to 50 | COC(=O)C(NCc1ccc(-c2ccc(Cl)cc2)o1)c1ccccc1 (stereo not drawn)
34 | 25 to 50 | COCCNc1ccc([N+](=O)[O-])cc1C(=O)OCCOc1ccccc1
35 | 25 to 50 | CC(=O)c1ccccc1OCCN(c1nccs1)S(=O)(=O)c1ccccc1
36 | 25 to 50 | O=C(NCC(F)(F)F)c1ccc(CN(Cc2cc(Cl)cc3c2OCCO3)C2CC2)cc1
37 | 51 to 75 | O=C(c1ccc(-c2ccccc2F)o1)N(Cc1ccco1)C1CCCC1
38 | 25 to 50 | COc1ccc(CN(C(C)C2CC2)S(=O)(=O)c2cccs2)cc1 (stereo not drawn)
39 | 25 to 50 | CC1CCCN(c2nc(-c3ccc(O)cc3O)cs2)C1 (stereo not drawn)
40 | 51 to 75 | CCN(C(=O)CCc1c(C)nc(-c2ccccn2)nc1O)C1CCCC1

Row | Structure (SMILES) | inhibition at 20 µM [%]
41 | Cc1ccc2c(c1)C1CN(C)CCC1N2Sc1ccc(Cl)cc1 (stereo not drawn) | 25 to 50
42 | CCOC(=O)c1c(NC(=O)c2c(N)n(CCCOC)c3nc4ccccc4nc23)sc2c1CCCC2 | 1 to 25
